# Results from publication PMC7808747, “Design, synthesis, and in vitro evaluation of BP-1-102 analogs with modified hydrophobic fragments for STAT3 inhibition” (Journal of Enzyme Inhibition and Medicinal Chemistry, 2021).
# Tests used:
# osteosarcoma U2-OS = assay: Resazurin cytotoxicity assay, U2-OS; details: 0–50 µM, 24 h
# Protocol: (§1) Furthermore, the cytotoxicity of compound 6 was compared to BP-1-102 (1) in human glioblastoma cell lines U-87 and T98 in concentration range 0–80 µM for 24 h using the crystal violet assay.
# (§2) The resazurin reduction assay[34] was performed as described previously. Briefly, cells were seeded onto a 96-well plate (2000 cells per well) in hexaplicate and the following day treated with the tested compounds (dissolved in DMSO as 50 mM stock) in a concentration range as indicated. After 24 h, 200 μl of culture medium of each well was exchanged for 100 μl of resazurin (stock 30 mg/ml; Sigma, St. Louis, MO) diluted 10 times in the culture medium, and the cells were incubated at 37 °C for 1–3 h. Reading of fluorescence was done using an Envision reader (PerkinElmer, Waltham, MA). Absolute values of fluorescence were related to the values of control/untreated cells. To estimate the cytotoxic concentration (half maximal inhibitory concentration, IC50), log-scale data were processed in GraphPad Prism software (La Jolla, CA) using nonlinear fit curve.
# [1] = system: prostate carcinoma DU-145; assay: Resazurin cytotoxicity assay, DU-145
# Protocol: as §1, §2
# [2] = system: human immortalised retinal pigment epithelium RPE-1; assay: Crystal violet assay, RPE-1; details: 0–50 µM, 24 h
# Protocol: (§3) The cells were treated with the compounds at concentrations 0, 5, 10, 20, and 50 µM for 24 h, and the cytotoxicity was estimated by the resazurin assay.
# (§4) To determine cell viability by crystal violet assay, cells were seeded in 96-well plates at densities of 3000 (RPE-1), 5000 (U373 and T98-G), and 8000 (U-87 MG) cells per well. The next day the cells were treated with the tested compounds in triplicate in a concentration range as indicated. After 24 h, the cells in each well were washed twice with 150 µl PBS and then stained in 30 µl 0.5% w/v crystal violet in 20% methanol for 15 min. Plates were washed three times with double distilled H2O and left to dry overnight. Crystal violet was solubilised with 75 µl 0.2% Triton X-100 (Sigma, St. Louis, MO) in PBS for 15 min. Absorbance of crystal violet was measured at 595 nm using a microplate reader (Multiskan EX, Thermo Electron Corporation, Waltham, MA). Absorbance of the treated samples was expressed as a percentage of absorbance of untreated cells.
# [3] = system: mouse lung TC-1 cancer cell line; assay: MTT cytotoxicity assay, TC-1; type: cell-based; details: for cytotoxic effect in TC-1 (in words): 0–50 µM, 24 h
# Protocol: (§5) Cells were seeded at the density of 2000 cells per well (96-well F microplates; Nunc, Roskilde, Denmark). The following day, the tested compounds were added. In the next 24 h, MTT (3-(4,5-dimethylthiazol-2-yl)-2,5-diphenyltetrazolium bromide) was added. After 6 h, DMF (dimethylformamide) was added, and after additional 24 h, absorbance was measured at 560 nm by a microplate reader.
# RPE-1 = assay: Resazurin assay, RPE-1 (Table 2); type: cell-based; details: Homo sapiens, resazurin assay (footnote a), read-out: IC50±SD RPE-1
# Protocol: The resazurin reduction assay[34] was performed as described previously[38]. Briefly, cells were seeded onto a 96-well plate (2000 cells per well) in hexaplicate and the following day treated with the tested compounds (dissolved in DMSO as 50 mM stock) in a concentration range as indicated. After 24 h, 200 μl of culture medium of each well was exchanged for 100 μl of resazurin (stock 30 mg/ml; Sigma, St. Louis, MO) diluted 10 times in the culture medium, and the cells were incubated at 37 °C for 1–3 h. Reading of fluorescence was done using an Envision reader (PerkinElmer, Waltham, MA). Absolute values of fluorescence were related to the values of control/untreated cells. To estimate the cytotoxic concentration (half maximal inhibitory concentration, IC50), log-scale data were processed in GraphPad Prism software (La Jolla, CA) using nonlinear fit curve.
# MDA-MB-231 cells = assay: Annexin V / propidium iodide FACS, MDA-MB-231; type: cell-based, human; details: MDA-MB-231, 0, 5, 10, 20, 50 µM, 24 h
# Protocol: (§6) Cells were harvested by centrifugation, resuspended in cold PBS and again centrifuged. Cell pellets were then resuspended in Annexin V Binding Buffer (ApoFlowEx FITC Kit, ED7044, Exbio, Vestec, Czech Republic), annexin V-APC and PI were added to the cell pellet and mixed. Cells were incubated in the dark at room temperature for 15 min. After the incubation, cells were centrifuged, resuspended in Annexin V Binding Buffer and analysed by flow cytometry. Five thousand cells per sample were measured by analysing annexin V and PI using a BD FACSVerse™ flow cytometer (BD Biosciences, Franklin Lakes, NJ). Data were analysed using FlowJo 10 software (FlowJo LLC, Ashland, OR), and the percentage of viable (annexin V-negative/PI-negative) cells relative to control was plotted.
# TC-1 cells = assay: Annexin V / propidium iodide FACS, TC-1; details: TC-1, 24 h
# Protocol: as §6
# human glioblastoma U373 = assay: Crystal violet assay, U373; details: 0–50 µM, 24 h
# Protocol: as §3, §4
# cervix carcinoma HeLa = assay: Resazurin cytotoxicity assay, HeLa; details: 0–50 µM, 24 h
# Protocol: as §1, §2
# [4] = system: STAT3 Y705 phosphorylation (pY705); assay: STAT3 pY705 immunoblotting, MDA-MB-231; type: cell-based, human; details: MDA-MB-231, micromolar concentration range, 4 h
# Protocol: The cells were exposed to BP-1-102 (1), compounds 6 and 14 in a micromolar concentration range for 4 h, and then the levels of STAT3 pY705 and total STAT3 were probed by immunoblotting with specific antibodies. […] It can be concluded that both novel compounds 6 and 14 manifested inhibitory effects on receptor-mediated phosphorylation of Y705 of STAT3 in both human and mouse cell lines.
# Cells were washed three times with PBS, harvested into 95 °C-heated Laemmli SDS sample lysis buffer (2% SDS, 50 mM Tris–Cl, 10% glycerol in double distilled H2O) and sonicated at 3 μm amplitude for 3 × 10 or 3 × 30 s with 10 or 30 s cooling intervals in a Soniprep 150 (MSE, London, UK) or Diagenode Bioruptor 300 (Diagenode, Liege, Belgium) for human and murine cell lines, respectively. Concentration of proteins was estimated by the Pierce^TM BCA Protein Assay (Thermo Scientific, Waltham, MA). DTT (100 mM) and 0.01% bromophenol blue were added to the lysates before separation by SDS-PAGE (10% gels were used). Equal protein amounts (40 or 35 μg for human or murine cell lines, respectively) were loaded into each well. Proteins were electrotransferred onto a nitrocellulose membrane (Amersham^TM Protran^TM 0.45 µm NC, GE Healthcare, Chalfont St Giles, UK) using wet transfer and detected by specific antibodies (at 4 °C overnight) combined with HRP-conjugated secondary antibodies. Peroxidase activity was detected by Amersham^TM ECL Western Blotting Detection Reagents (GE Healthcare, Chalfont St Giles, UK). GAPDH was used as a loading control.
# [5] = system: mouse prostate TRAMP-C2 cancer cell line; assay: MTT cytotoxicity assay, TRAMP-C2; type: cell-based; details: MTT assay; for cytotoxic effect in TRAMP-C2 (in words): 0–50 µM, 24 h
# Protocol: as §5
# TRAMP-C2 cells = assay: Annexin V / propidium iodide FACS, TRAMP-C2; type: cell-based, mouse; details: TRAMP-C2, 24 h
# Protocol: as §6
# [6] = system: human breast cancer MDA-MB-231 cell line; assay: Resazurin cytotoxicity assay, MDA-MB-231; type: cell-based; details: resazurin assay; for cytotoxic effect in MDA-MB-231 (in words): 0, 5, 10, 20, 50 µM
# Protocol: as §3
# To estimate IC50 of 6 and 14, MDA-MB-231 cells were treated with 1 (0, 2, 5, 10, 15, 20, 25, 30, 40, and 50 µM), 6 (0, 5, 10, 20, 25, 30, 40, 50, 70, and 100 µM), and 14 (0, 20, 40, 50, 60, 70, 80, 100, 150, and 200 µM) for 24 h.
# as §2
# [7] = system: human breast adenocarcinoma MCF-7; assay: Resazurin cytotoxicity assay, MCF-7
# Protocol: as §1, §2
# [8] = system: human breast cancer MDA-MB-231; design: method as in PMID 20067773; details: previously published; cited from earlier work
# [9] = system: pancreatic cancer Panc-1 cell lines; design: method as in PMID 20067773; details: previously published; cited from earlier work
compound,measurement,setting,value
"CN(CC(=O)N(Cc1ccc(C(F)(F)F)cc1)c1ccc(C(=O)O)c(O)c1)S(=O)(=O)c1c(F)c(F)c(F)c(F)c1F [Compound 14, 4-(N-(4-Trifluoromethylbenzyl)-2-(2,3,4,5,6-pentafluoro-N-methylphenylsulfonamido)acetamido)-2-hydroxybenzoic acid]",cytotoxic effect in U2-OS (in words),osteosarcoma U2-OS,"comparable to BP-1-102 (1) and compound 6 at 50 µM, it was markedly decreased at lower concentrations"
same,cytotoxic effect in DU-145 (in words),"[1]; 0–50 µM, 24 h, resazurin assay",weaker response
same,IC50,"[1]; Homo sapiens, DU-145, read-out: IC50±SD DU-145",65.3 ± 7.8 µM
same,cytotoxic activity in RPE-1 (in words),[2],concentration-dependent cytotoxic activity
same,cytotoxic effect in TC-1 (in words),[3],cytotoxic activity comparable to BP-1-102 (1)
same,IC50,"[3]; Mus musculus, read-out: IC50±SD TC-1",25.3 ± 6.6 µM
same,IC50,RPE-1,39.7 ± 7.4 µM
same,"cell death induction (annexin V/PI, FACS)",MDA-MB-231 cells,cell death induction was confirmed
same,cytotoxicity by annexin V/PI staining and FACS,TC-1 cells,confirmed
same,cytotoxic activity in U373 (in words),human glioblastoma U373,concentration-dependent cytotoxic activity
same,cytotoxic effect in HeLa (in words),cervix carcinoma HeLa,"comparable to BP-1-102 (1) and compound 6 at 50 µM, it was markedly decreased at lower concentrations"
same,inhibition of constitutive STAT3 Y705 phosphorylation,[4],inhibited constitutive STAT3 phosphorylation
same,cytotoxic effect in TRAMP-C2 (in words),[5],cytotoxic activity comparable to BP-1-102 (1)
same,IC50,"[5]; Mus musculus, read-out: IC50±SD TRAMP-C2",23.1 ± 10.5 µM
same,cytotoxicity by annexin V/PI staining and FACS,TRAMP-C2 cells,confirmed
same,IC50,"[6]; Homo sapiens, MDA-MB-231, 24 h, 24 h, read-out: IC50±SD MDA-MB-231",39.3 ± 6.3 µM
same,concentration from which the compound was cytotoxic,"[6]; MDA-MB-231, 24 h",20 µM
same,cytotoxic effect in MCF-7 (in words),"[7]; 0–50 µM, 24 h, resazurin assay","comparable to BP-1-102 (1) and compound 6 at 50 µM, it was markedly decreased at lower concentrations"
same,IC50,"[7]; Homo sapiens, MCF7, read-out: IC50±SD MCF-7",47.3 ± 3.8 µM
"Cc1ccc(S(=O)(=O)N(C)CC(=O)N(Cc2ccc(C3CCCCC3)cc2)c2ccc(C(=O)O)c(O)c2)cc1 [S3I-201.1066 (2), 4-(N-(4-Cyclohexylbenzyl)-2-(N-methyl-N-(p-toluenesulfonyl))acetamido)-2-hydroxybenzoic acid, reference compound]",effect on viability of MDA-MB-231,[8],reported to affect viability
same,cytotoxic effect in TC-1 (in words),[3],did not demonstrate any cytotoxic effect
same,cytotoxic effect in TRAMP-C2 (in words),[5],did not demonstrate any cytotoxic effect
same,effect on viability of Panc-1,[9],reported to affect viability
same,cytotoxic effect in MDA-MB-231 (in words),[6]; 24 h,did not show any observable cytotoxic effect
same,cytotoxic effect in MDA-MB-231 (in words),"[6]; 24 h, listed as 2",complete loss of cytotoxic activity
